The test concerns the target T1, ER Alpha-LBD (GST) (Homo sapiens, UniProt P03372).
T1 construct: purchased Thermo Fisher
T1 sequence (P03372 311-547 limits assumed): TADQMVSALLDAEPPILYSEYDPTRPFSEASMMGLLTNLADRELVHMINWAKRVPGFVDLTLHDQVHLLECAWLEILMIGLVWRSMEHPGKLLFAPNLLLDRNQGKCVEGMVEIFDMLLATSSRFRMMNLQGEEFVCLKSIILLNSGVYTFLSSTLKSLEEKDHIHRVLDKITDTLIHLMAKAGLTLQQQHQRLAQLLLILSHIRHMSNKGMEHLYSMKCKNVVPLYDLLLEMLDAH
Put plainly: ER binding assay (LanthaScreen TR-FRET ER Alpha Competitive Binding Assay). The settings on record: Fluormone ES2 Green tracer, read-out: ERα Ki. The protocol: Cells were plated at varying density in the respective growth medium in 96 well plates. 24 hr later, cells were treated, in triplicate or quadruplicate, with test articles prepared in a range of concentrations by series dilution of DMSO stock solutions in growth medium and incubated for three to seven days. The number of viable 22RV1 and HT-29 cells was measured using CellTiter Glo assay (CTG, Promega, Madison, WI) after three days of treatment. The other types of cancer cells were re-treated at three or four days and the number of viable cells was measured using CTG assay after a total treatment time of six or seven days. Cell viability data were plotted using GraphPad Prism (GraphPad Software, Inc., San Diego, CA). In addition, a nonlinear regression model with a sigmoidal dose response and variable slope within GraphPad Prism was used to calculate the IC50 value of individual test articles. Additional cell proliferation assays: Other cancer cell lines are tested in a cell proliferation assay. For example, SK-OV-3 or OVCAR3 ovarian cancer cells are tested. Cells are cultured in medium recommended by the supplier (e.g., ATCC or JCRB Cell Bank), at 37° C. in a 5% CO2 environment. For the proliferation assay, cells are plated in the growth medium in 96 well plates. Seeding density is adjusted according to the cell type. […] The number of viable cells is measured using CellTiter Glo assay (CTG, Promega, Madison, WI) or similar. […] ER binding assay: ERα binding was assessed by the LanthaScreen® TR-FRET ER Alpha Competitive Binding Assay at Thermo Fisher. […] Competitive binding to the ER Alpha-LBD (GST) was detected by a test compound's ability to displace a fluorescent ligand (Fluormone™ ES2 Green tracer) from the ER Alpha-LBD (GST), which results in a loss of FRET signal between the Tb-anti-GST antibody and the tracer. […] After an incubation period at room temperature, the TR-FRET ratio of 520:495 emissions were calculated and was used to determine the IC50 from a dose response curve of the compound. […]

pKi: −log10 of the molar value.

Our source for the Ki values is patent US12398121B2 (Nuvation Bio Inc., priority 2018, dated 2025).

As to `CCC(=C(c1ccc(O)cc1)c1ccc(OCCN2CCN(C(=O)c3cc(Cc4n[nH]c(=O)c5ccccc45)ccc3F)CC2)cc1)c1ccccc1` [Compound 2.14, 4-(4-fluoro-3-(4-(2-(4-(1-(4-hydroxyphenyl)-2-phenylbut-1-enyl)phenoxy)ethyl)piperazine-1-carbonyl)benzyl)pthalazin-1(2H)-one], the negative-log Ki (pKi) was 8.46. Regarding `O=C(c1ccc(OCCN2CCN(C(=O)c3cc(Cc4n[nH]c(=O)c5ccccc45)ccc3F)CC2)cc1)c1c(-c2ccc(O)cc2)sc2cc(O)ccc12` [Compound 2.13, 4-(4-fluoro-3-(4-(2-(4-(6-hydroxy-2-(4-hydroxyphenyl)benzo[b]thiophene-3-carbonyl)phenoxy)ethyl)piperazine-1-carbonyl)benzyl)phthalazin-1(2H)-one], the negative logarithm of the Ki (pKi) was 8.48. `CN(CCCCCC(=O)N1CCN(C(=O)c2cc(Cc3n[nH]c(=O)c4ccccc34)ccc2F)CC1)CCOc1ccc(C(=O)c2c(-c3ccc(O)cc3)sc3cc(O)ccc23)cc1` [Compound 2.4, 4-(4-fluoro-3-(4-(6-((2-(4-(6-hydroxy-2-(4-hydroxyphenyl)benzo[b]thiophene-3-carbonyl)phenoxy)ethyl)(methyl)amino)hexanoyl)piperazine-1-carbonyl)benzyl)phthalazin-1(2H)-one]: the negative logarithm of the Ki (pKi) is 8.30.

As a reminder, the pKi is the Ki on a negative log10 scale, so that one unit is a factor of ten.
